Assay results taken from US7498292B2, “Combinatorial libraries of autoinducer analogs, autoinducer agonists and antagonists, and methods of use thereof” (The Research Foundation of State University of New York, priority 2002, dated 2009).
“Also recorded” adds a separate entry of the source.

Key:
LasR = target: T1, LasR (Pseudomonas aeruginosa, UniProt P25084); assay: lasI-gfp reporter agonist assay, PAO-JP2 (plasI-LVAgfp); assay type: cell-based, P. aeruginosa; details: PAO-JP2 (plasI-LVAgfp), compounds made in solution phase, increasing concentrations (1, 100, 400 μM)
T1 construct: endogenous in cells; host or cells: P. aeruginosa PAO-JP2 (lasI, rhlI) harboring plasI-LVAgfp
T1 sequence (P25084 whole entry): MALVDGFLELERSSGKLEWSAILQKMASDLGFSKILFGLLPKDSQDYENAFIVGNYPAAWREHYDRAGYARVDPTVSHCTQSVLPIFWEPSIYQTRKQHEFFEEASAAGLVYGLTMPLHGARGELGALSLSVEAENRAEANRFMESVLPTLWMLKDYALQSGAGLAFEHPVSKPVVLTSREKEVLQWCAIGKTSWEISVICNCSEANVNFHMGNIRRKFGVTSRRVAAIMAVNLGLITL
From the text: Since this strain lacks the ability to produce natural AIs due to disruption of both AI synthase genes, activation of LasR relies on the addition of exogenous AI1. Expression of gfp (encoding green fluorescent protein) is under control of the LasR-AI1 inducible lasI promoter, allowing rapid screening for LasR agonists by measuring the level of GFP expression in their presence.
P. aeruginosa strain PAO-JP2 (lasI, rhlI) (Rahme et al., Science 268:1899-1902 (1995), which is hereby incorporated by reference in its entirety) harboring plasI-LVAgfp (Pearson et al., Proc. Natl Acad. Sci. USA 91:197-201 (1994), which is hereby incorporated by reference in its entirety) was grown at 37° C. in LB with 300 μg/ml carbenicillin. For agonist assays, an overnight culture was diluted to an OD600 of 0.1 and transferred to wells of a 96-well plate on which test compounds had previously been added and dried. The final concentration of each analog tested was roughly 400 μM, although this is an overestimate due to purity issues. Cells were then incubated for 6 hours at 37° C. with vigorous shaking. GFP expression was detected with a Molecular Imager (BioRad) (488 nm excitation and 695 nm bandpass filter) and quantified with ImageQuant software. The OD600 of cultures was determined to normalize GFP expression to cell density.
Reporter strains were grown overnight in LB plus 300 μg/ml carbenicillin at 37° C. and diluted to an OD600 of 0.1. Following an incubation of 1 hour, 200 μl of cell culture was added to individual wells of a 96 well plate containing appropriate amount of test compound(s). Plates were incubated for 6 hours and then scanned for fluorescence emission with a Molecular Imager (488 nm excitation and 695 nm bandpass filter). Fluorescence was quantified with ImageQuant software.

Elastase B [1] = assay: elastase (Elastin Congo Red) assay, strain PAO-JP2; assay type: cell-based, P. aeruginosa PAO-JP2; details: PAO-JP2, 50 μM compound, 5 μM AI1 and 10 μM AI2
Method: (§1) Pyocyanin, elastase, and biofilm were assayed as previously described (Smith et al., Chem. Biol. 10:81-89 (2003), which is hereby incorporated by reference in its entirety). Elastase activity produced by P. aeruginosa in the presence of AIs and competing 3-oxo-C12-D10 was determined by measuring breakdown of the substrate Elastin Congo Red.
(§2) For the elastase B assay, cells (PAO-JP2) were grown overnight in PTSB media (5% Peptone, 0.1% Tryptic Soy Broth) at 37° C., washed and diluted to an OD600 of 0.05, grown to mid-log phase, washed again, and re-suspended to an OD600 of 0.05. The culture was then added to test tubes containing test compound(s) and grown for 6 hours. Elastase B activity was quantified by incubation of 100 μl of filtered culture supernatant with 5 mg Elastin Congo Red substrate and 1 ml of 10 mM Tris pH 7.2, 1 mM CaCl2 for 6 hours at 37° C. with agitation. Elastase B activity is represented by the OD495 of the enzyme assay following reaction quenching with EDTA and centrifugation to remove unreacted substrate, divided by the OD600 of the cell culture. The same assay was run with strain PAO-1, however no exogenous autoinducers were added.

Elastase B [2] = assay: elastase (Elastin Congo Red) assay, wild type strain PAO1; assay type: cell-based, P. aeruginosa PAO1; details: wild type PAO1, 100 μM compound
Method: as §1, §2

lac promoter = assay: GFP expression from lac promoter, PAO-JP2 (pTdK-GFP) (specificity control); assay type: cell-based, P. aeruginosa; details: lasI promoter replaced with a lac promoter

## CCCCCCCCCC(=O)CC(=O)NC1CCCCC1=O (racemic) [Compound 3, N-(2-oxocyclohexyl)-3-oxododecanamide]
LasR
  agonist activity (induction of lasI-gfp reporter): nearly unable to induce the reporter; also recorded: no agonist activity
Elastase B [1]
  elastase activity, % of the positive control level: 60%
Elastase B [2]
  elastase activity, % of the control level: 30%
Lac promoter
  inhibition of GFP expression from lac promoter: inability to inhibit GFP expression
